From publication PMC9065877, “Safety, tolerability and pharmacokinetics of the oligomer modulator anle138b with exposure levels sufficient for therapeutic efficacy in a murine Parkinson model: A randomised, double-blind, placebo-controlled phase 1a trial” (EBioMedicine, 2022)

Tests used:
[1] = tested on: striatal dopamine (DA) release in MI2 mice; assay: Dose-response study in MI2 mice: striatal dopamine release by in vivo microdialysis; design: species or system mouse; conditions: up to 300 mg/kg/day in food
Protocol: An anle138b pharmacodynamics dose-response study was performed using MI2 mice, a novel model of α-synucleinopathy characterized by a progressive PD-like phenotype including accumulation of α-synuclein inclusions in nigrostriatal dopaminergic neurons and impairment of striatal dopamine (DA) release (Wegrzynowicz et al., 2019). The research was carried out in accordance with the Animals (Scientific Procedures) Act 1986 Amendment Regulations 2012 after the review by the University of Cambridge Animal Welfare and Ethical Review Body (AWERB), under the project license 70/8383. Anle138b treatment was commenced at 6 months, an age when impairment of striatal DA release is already observed in MI2 mice, but prior to nigral neuronal loss. […] After 2 months of treatment (at the age of 8 months), striatal release of DA was analysed using in vivo microdialysis, as previously reported (Wegrzynowicz et al., 2019). […] DA levels in the microdialysates were measured by high performance liquid chromatography with electrochemical detection, as described in (Garcia-Reitböck et al., 2010). […] The obtained chromatograms were analysed with Chromeleon Chromatography Data System (V 6·2; Dionex). […]

[2] = Blood levels of anle138b after chronic dosing (14 days) in food pellets; type: in vivo; design: dose or concentration left out as unconfirmed; conditions: mouse, oral, doses of ≥11·, read-out: AUC0-24 exposure
Protocol: Based on the analysis of blood levels of anle138b after chronic dosing (14 days) using the same formulation (anle138b in food pellets), doses of ≥11·1 mg/kg/day correspond to an AUC0-24 exposure of ≥ 300 ng*h/ml.

[3] = animal studies; cited from earlier work

Compound: Brc1cccc(-c2cc(-c3ccc4c(c3)OCO4)n[nH]2)c1 [anle138b, 3-(1,3-benzodioxol-5-yl)-5-(3-bromophenyl)-1H-pyrazole]
- Effect on striatal dopamine release at higher doses [1]: stabile maximal effects were observed
- AUC(0-t) [2]: ≥ 300 ng·h/mL
- Levels of anle138b in the brain relative to plasma [3]: 5 fold
- Oral bioavailability (in words) [3]: high oral bioavailability
